{"source": "paper PMC7531004", "about": "“Discovery of gramicidin A analogues with altered activities by multidimensional screening of a one-bead-one-compound library” (Nature Communications, 2020)", "key": {"[1]": {"test_system": "Streptococcus pyogenes SSI-9", "experiment": "Antibacterial activity assay of bead-derived peptides (three concentrations)", "format": "cell-based", "set-up": "key: +++: inhibition by the 640-fold diluted peptide solution; ++: inhibition by the 160-fold diluted solution; +: inhibition by the 40-fold diluted solution; -: no inhibition", "settings": "S. pyogenes, bead-derived peptide solution, three concentrations", "how_it_was_run": "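First, each peptide stock was diluted 4- and 16-fold in DMSO; next, the three solutions were mixed with S. pyogenes SSI-9 suspension (2 × 10^5 CFU) in cation-adjusted Mueller Hinton Broth plus 5% laked horse blood; finally, plates stood 18 h at 37 °C before checking for grown-cell precipitation.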"}, "[2]": {"experiment": "H+/Na+ transport assay of bead-derived peptides (one-point)", "format": "biochemical", "set-up": "key: relative activity; mean of two control wells = 1.00", "settings": "bead-derived peptide solution, EYPC/EYPG LUVs", "how_it_was_run": "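One-point screen: peptide + pyranine-loaded LUVs, 30 min RT with vortexing, 96-well. Read-out is fluorescence intensity scaled as 100 × (Ix – I0)/(Imax – I0). Imax from Triton X-100, I0 from untreated vesicles, and the mean of the two control wells is set to 1.00.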"}, "[3]": {"settings": "cell viability/%", "how_it_was_run": "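Peptide stocks diluted 250× in growth medium; P388 cells 1 × 10^4 cells/mL final; 37 °C, 5% CO2, 92 h. WST-1 + 1-methoxy PMS, 4 h, A415. Output: % viability.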"}}, "note": "Where a SMILES comes first, the peptide text is derived from it. [ ]: non-standard residue; d: D form. The star is where a group is joined. NHCH2CH2OH = OCCN*; For = O=C*"}
{"smiles": "CC(C)C[C@@H](NC(=O)[C@H](C)NC(=O)CNC(=O)[C@@H](NC=O)C(C)C)C(=O)N[C@@H](C)C(=O)N[C@H](CC(C)C)C(=O)N[C@H](C(=O)N[C@H](CC(C)C)C(=O)N[C@@H](Cc1c[nH]c2ccccc12)C(=O)N[C@H](CC(C)C)C(=O)N[C@@H](Cc1c[nH]c2ccccc12)C(=O)N[C@H](CC(C)C)C(=O)N[C@@H](Cc1c[nH]c2ccccc12)C(=O)N[C@@H](C(=O)N[C@@H](Cc1c[nH]c2ccccc12)C(=O)NCCO)[C@H](C)O)C(C)C", "note": "[compound 5006] (For-VGA[dL]A[dL]V[dL]W[dL]W[dL]W[dT]W-NHCH2CH2OH)", "values": [{"measurement": "antibacterial activity", "setting": "[1]", "result": "-"}, {"measurement": "H+/Na+ transport activity normalized against the value of 1 (1.00)", "setting": "[2]", "result": 1.12}, {"measurement": "viability", "setting": "[3]", "result": 100, "unit": "%"}]}
{"smiles": "CC(C)C[C@@H](NC(=O)[C@H](C)NC(=O)CNC(=O)[C@@H](NC=O)C(C)C)C(=O)N[C@@H](C)C(=O)N[C@@H](C(=O)N[C@H](C(=O)N[C@@H](C(=O)N[C@@H](Cc1c[nH]c2ccccc12)C(=O)N[C@@H](C(=O)N[C@@H](Cc1c[nH]c2ccccc12)C(=O)N[C@@H](C(=O)N[C@@H](Cc1c[nH]c2ccccc12)C(=O)N[C@H](CC(C)C)C(=O)N[C@@H](Cc1c[nH]c2ccccc12)C(=O)NCCO)C(C)C)C(C)C)C(C)C)C(C)C)C(C)C", "note": "[compound 5056] (For-VGA[dL]A[dV]V[dV]W[dV]W[dV]W[dL]W-NHCH2CH2OH)", "values": [{"measurement": "antibacterial activity", "setting": "[1]", "result": "+"}, {"measurement": "H+/Na+ transport activity normalized against the value of 1 (1.00)", "setting": "[2]", "result": 1.01}, {"measurement": "viability", "setting": "[3]", "result": 100, "unit": "%"}]}
{"smiles": "CNC(=O)C[C@@H](NC(=O)[C@H](C)NC(=O)[C@H](NC(=O)[C@H](C)NC(=O)CNC(=O)[C@@H](NC=O)C(C)C)C(C)C)C(=O)N[C@H](C(=O)N[C@@H](C(=O)N[C@@H](Cc1c[nH]c2ccccc12)C(=O)N[C@@H](C(=O)N[C@@H](Cc1c[nH]c2ccccc12)C(=O)N[C@H](CC(C)C)C(=O)N[C@@H](Cc1c[nH]c2ccccc12)C(=O)N[C@H](CC(C)C)C(=O)N[C@@H](Cc1c[nH]c2ccccc12)C(=O)NCCO)C(C)C)C(C)C)C(C)C", "note": "[compound 5211] (For-VGA[dV]A[dD](NHMe)V[dV]W[dV]W[dL]W[dL]W-NHCH2CH2OH)", "values": [{"measurement": "antibacterial activity", "setting": "[1]", "result": "-"}, {"measurement": "H+/Na+ transport activity normalized against the value of 1 (1.00)", "setting": "[2]", "result": 1.05}, {"measurement": "viability", "setting": "[3]", "result": 100, "unit": "%"}]}
{"smiles": "CNC(=O)C[C@@H](NC(=O)[C@H](Cc1c[nH]c2ccccc12)NC(=O)[C@H](NC(=O)[C@@H](NC(=O)[C@@H](CC(C)C)NC(=O)[C@H](C)NC(=O)[C@@H](CC(C)C)NC(=O)[C@H](C)NC(=O)CNC(=O)[C@@H](NC=O)C(C)C)C(C)C)C(C)C)C(=O)N[C@@H](Cc1c[nH]c2ccccc12)C(=O)N[C@@H](C(=O)N[C@@H](Cc1c[nH]c2ccccc12)C(=O)N[C@@H](C(=O)N[C@@H](Cc1c[nH]c2ccccc12)C(=O)NCCO)C(C)C)C(C)C", "note": "[compound 5255] (For-VGA[dL]A[dL]V[dV]W[dD](NHMe)W[dV]W[dV]W-NHCH2CH2OH)", "values": [{"measurement": "antibacterial activity", "setting": "[1]", "result": "-"}, {"measurement": "H+/Na+ transport activity normalized against the value of 1 (1.00)", "setting": "[2]", "result": 1.25}, {"measurement": "viability", "setting": "[3]", "result": 100, "unit": "%"}]}
{"smiles": "CNC(=O)C[C@@H](NC(=O)[C@H](Cc1c[nH]c2ccccc12)NC(=O)[C@@H](CC(C)C)NC(=O)[C@@H](NC(=O)[C@@H](CC(C)C)NC(=O)[C@H](C)NC(=O)[C@H](NC(=O)[C@H](C)NC(=O)CNC(=O)[C@@H](NC=O)C(C)C)[C@H](C)O)C(C)C)C(=O)N[C@@H](Cc1c[nH]c2ccccc12)C(=O)N[C@H](CC(C)C)C(=O)N[C@@H](Cc1c[nH]c2ccccc12)C(=O)N[C@H](CC(C)C)C(=O)N[C@@H](Cc1c[nH]c2ccccc12)C(=O)NCCO", "note": "[compound 5284] (For-VGA[dT]A[dL]V[dL]W[dD](NHMe)W[dL]W[dL]W-NHCH2CH2OH)", "values": [{"measurement": "antibacterial activity", "setting": "[1]", "result": "-"}, {"measurement": "H+/Na+ transport activity normalized against the value of 1 (1.00)", "setting": "[2]", "result": 1.02}, {"measurement": "viability", "setting": "[3]", "result": 100, "unit": "%"}]}
{"smiles": "CC(C)C[C@@H](NC(=O)[C@H](C)NC(=O)CNC(=O)[C@@H](NC=O)C(C)C)C(=O)N[C@@H](C)C(=O)N[C@@H](C(=O)N[C@H](C(=O)N[C@@H](C(=O)N[C@@H](Cc1c[nH]c2ccccc12)C(=O)N[C@@H](C(=O)N[C@@H](Cc1c[nH]c2ccccc12)C(=O)N[C@@H](C(=O)N[C@@H](Cc1c[nH]c2ccccc12)C(=O)N[C@@H](C(=O)N[C@@H](Cc1c[nH]c2ccccc12)C(=O)NCCO)C(C)C)C(C)C)C(C)C)C(C)C)C(C)C)[C@H](C)O", "note": "[compound 5343] (For-VGA[dL]A[dT]V[dV]W[dV]W[dV]W[dV]W-NHCH2CH2OH)", "values": [{"measurement": "antibacterial activity", "setting": "[1]", "result": "-"}, {"measurement": "H+/Na+ transport activity normalized against the value of 1 (1.00)", "setting": "[2]", "result": 1.33}, {"measurement": "viability", "setting": "[3]", "result": 100, "unit": "%"}]}
{"smiles": "CC(C)C[C@@H](NC(=O)[C@H](C)NC(=O)[C@H](NC(=O)[C@H](C)NC(=O)CNC(=O)[C@@H](NC=O)C(C)C)[C@H](C)O)C(=O)N[C@H](C(=O)N[C@H](CC(C)C)C(=O)N[C@@H](Cc1c[nH]c2ccccc12)C(=O)N[C@@H](C(=O)N[C@@H](Cc1c[nH]c2ccccc12)C(=O)N[C@@H](C(=O)N[C@@H](Cc1c[nH]c2ccccc12)C(=O)N[C@H](CC(C)C)C(=O)N[C@@H](Cc1c[nH]c2ccccc12)C(=O)NCCO)C(C)C)[C@H](C)O)C(C)C", "note": "[compound 5532] (For-VGA[dT]A[dL]V[dL]W[dT]W[dV]W[dL]W-NHCH2CH2OH)", "values": [{"measurement": "antibacterial activity", "setting": "[1]", "result": "-"}, {"measurement": "H+/Na+ transport activity normalized against the value of 1 (1.00)", "setting": "[2]", "result": 1.06}, {"measurement": "viability", "setting": "[3]", "result": 100, "unit": "%"}]}
{"smiles": "CNC(=O)C[C@@H](NC(=O)[C@@H](NC(=O)[C@H](NC(=O)[C@H](C)NC(=O)[C@H](NC(=O)[C@H](C)NC(=O)CNC(=O)[C@@H](NC=O)C(C)C)C(C)C)C(C)C)C(C)C)C(=O)N[C@@H](Cc1c[nH]c2ccccc12)C(=O)N[C@H](CC(C)C)C(=O)N[C@@H](Cc1c[nH]c2ccccc12)C(=O)N[C@@H](C(=O)N[C@@H](Cc1c[nH]c2ccccc12)C(=O)N[C@@H](C(=O)N[C@@H](Cc1c[nH]c2ccccc12)C(=O)NCCO)C(C)C)C(C)C", "note": "[compound 5536] (For-VGA[dV]A[dV]V[dD](NHMe)W[dL]W[dV]W[dV]W-NHCH2CH2OH)", "values": [{"measurement": "antibacterial activity", "setting": "[1]", "result": "-"}, {"measurement": "H+/Na+ transport activity normalized against the value of 1 (1.00)", "setting": "[2]", "result": 1.45}, {"measurement": "viability", "setting": "[3]", "result": 100, "unit": "%"}]}
{"smiles": "CC(C)C[C@@H](NC(=O)[C@H](Cc1c[nH]c2ccccc12)NC(=O)[C@H](NC(=O)[C@H](Cc1c[nH]c2ccccc12)NC(=O)[C@H](NC(=O)[C@H](Cc1c[nH]c2ccccc12)NC(=O)[C@H](NC(=O)[C@@H](NC(=O)[C@H](NC(=O)[C@H](C)NC(=O)[C@H](NC(=O)[C@H](C)NC(=O)CNC(=O)[C@@H](NC=O)C(C)C)C(C)C)C(C)C)C(C)C)[C@H](C)O)C(C)C)C(C)C)C(=O)N[C@@H](Cc1c[nH]c2ccccc12)C(=O)NCCO", "note": "[compound 5542] (For-VGA[dV]A[dV]V[dT]W[dV]W[dV]W[dL]W-NHCH2CH2OH)", "values": [{"measurement": "antibacterial activity", "setting": "[1]", "result": "-"}, {"measurement": "H+/Na+ transport activity normalized against the value of 1 (1.00)", "setting": "[2]", "result": 1.17}, {"measurement": "viability", "setting": "[3]", "result": 100, "unit": "%"}]}
{"smiles": "CC(C)C[C@@H](NC(=O)[C@H](C)NC(=O)CNC(=O)[C@@H](NC=O)C(C)C)C(=O)N[C@@H](C)C(=O)N[C@@H](C(=O)N[C@H](C(=O)N[C@@H](C(=O)N[C@@H](Cc1c[nH]c2ccccc12)C(=O)N[C@H](CC(C)C)C(=O)N[C@@H](Cc1c[nH]c2ccccc12)C(=O)N[C@@H](C(=O)N[C@@H](Cc1c[nH]c2ccccc12)C(=O)N[C@H](CC(C)C)C(=O)N[C@@H](Cc1c[nH]c2ccccc12)C(=O)NCCO)C(C)C)C(C)C)C(C)C)[C@H](C)O", "note": "[compound 5555] (For-VGA[dL]A[dT]V[dV]W[dL]W[dV]W[dL]W-NHCH2CH2OH)", "values": [{"measurement": "antibacterial activity", "setting": "[1]", "result": "-"}, {"measurement": "H+/Na+ transport activity normalized against the value of 1 (1.00)", "setting": "[2]", "result": 1.22}, {"measurement": "viability", "setting": "[3]", "result": 100, "unit": "%"}]}
